{"source": "patent US20110105600A1", "about": "“SYNERGISTIC COMPOSITION OF (-)-HYDROXYCITRIC ACID WITH MONOTERPENE AND A METHOD TO ENHANCE SATIETY” (Glykon Technologies Group, LLC, priority 2009, published 2011)", "origin": "cited, not measured here", "key": {"[1]": {"conditions": "end of eight weeks; 2,800 mg/HCA per day in capsules"}, "[2]": {"conditions": "single large oral dose or two divided oral doses; animals fed a high-sugar diet"}, "[3]": {"experiment": "not given", "remark": "listed apart in the source"}, "[4]": {"conditions": "40 oz of Mediterranean-style lemonade containing 596 mg d-limonene"}, "[5]": {"conditions": "humans; dosage related to total body surface area"}}}
{"smiles": "O=C(O)CC(O)(C(=O)O)C(O)C(=O)O", "note": "(single isomer, unassigned; (-)) [HCA, (−)-hydroxycitric acid]", "values": [{"measurement": "decrease in appetite", "setting": "[1]", "value": "approximately 15.6%"}, {"measurement": "reduction in food consumption", "setting": "[2]", "value": "≥ 10", "unit": "%"}, {"measurement": "decrease in food intake", "setting": "900 mg HCA dissolved in 100 ml tomato juice, 2-week period", "value": "15-30%"}, {"measurement": "reduction in appetite", "setting": "900 mg/day, two weeks", "value": "15-30%"}, {"measurement": "weight loss", "setting": "2-week period", "value": "no significant weight loss"}]}
{"smiles": "C=C(C)[C@H]1CC=C(C)CC1", "note": "[d-limonene]", "values": [{"measurement": "duration of slight fatigue and eructation", "setting": "[3]; oral dose of 100 mg/kg", "value": "four"}, {"measurement": "duration of mild satiety", "setting": "[3]; oral dose of 100 mg/kg (bolus of 7 grams for a 70 kg human)", "value": 10, "unit": "h"}, {"measurement": "time to maximal blood concentrations of perillyl alcohol", "setting": "[4]", "value": "one"}]}
{"smiles": "CC(C)=CCC/C(C)=C/CO", "note": "[geraniol]", "values": [{"measurement": "acute oral LD50", "setting": "rat", "value": "3,600 mg/kg body weight"}]}
{"smiles": "CC(C)=CCC/C(C)=C\\CO", "note": "[nerol]", "values": [{"measurement": "acute oral LD50", "setting": "rat", "value": "4,500 mg/kg body weight"}]}
{"smiles": "C=C(C)[C@@H]1CC=C(CO)CC1", "note": "[perillyl alcohol]", "values": [{"measurement": "maximum tolerated dose", "setting": "[5]", "value": 8400, "unit": "mg/m^2 per day"}]}
